Measured values: publication PMC10385579, “Design, Synthesis, and Biological Evaluation of Indole-2-carboxamides as Potential Multi-Target Antiproliferative Agents” (Pharmaceuticals, 2023)
Where two headings read alike, the source gives them in different places. One block for each compound: values may come before it.

Key:
[1] = biological target: T1, VEGFR-2 (Homo sapiens, UniProt P35968); test: VEGFR-2 inhibitory assay
Description: Prepare all the solutions using autoclaved, deionized water and analytical grade reagents.
and store all the reagents at room temperature (unless indicated otherwise).
solution, add 5 mL ultra-pure water; 1×Kinase Assay Buffer: add 25 mL HEPES solution (1 M),
water, adjust pH to 7.5 and constant volume to 500 mL using ultrapure water; 4×Stop solution (40
mM): Mix 0.8 mL of the foregoing EDTA solution, 1 mL 10×Detection Buffer and 8.2 mL ultra-
pure water; 1×Detection Buffer: Mix 1 mL 10×Detection Buffer with 9 mL water; 4×VEGFR
μM) was added to 624 μL 1×Kinase Assay Buffer and mixed; 4×ULight™-labeled JAK1
concentration 5 μM) was added to 576 μL 1×Kinase Assay Buffer and mixed; 4×ATP Solution
2×substrate/ATP Mix: 560 μL foregoing 4×ULight™-labeled JAK1 and 560 μL 4×ATP solution
and mixed (prepared before use). The assays used an ULight-labeled peptide substrate and a
Europium-W1024-labeled antiphosphotyrosine antibody. The VEGFR-2 was purchased from
Carna Biosciences, Inc. (New York, USA). The 384-well plates were obtained from PerkinElmer.
5 μL 2×VEGFR-2 kinase solution (0.5 nM)
was added to 384-well plates homogeneous mixing and pre-reaction at room temperature for 30 min. Next, 2.5 μL 4×Ultra ULightTM-JAK-1(Tyr1023) Peptide (200 nM)/ATP (40 μM) was added to the corresponding wells of a 384-well plate. Negative control: 2.5 μL/well 4×substrate/ATP mixture and 7.5 μL 1×kinase assay buffer in 384-well plate well. Positive control:
μL/well 2×VEGFR-2 kinase solution was added to the 384-well plate, The final concentration of DMSO in the mixing system was 4%. After incubation at room temperature and dark for 60 min, 5 μL 4×stop solution was added to corresponding wells to react for 5 min and then 5 μL 4×detection mix was added to the corresponding wells of a 384-well plate. The mixture was centrifugally mixed and stayed for 60 min at room temperature for color development. The plate was read using a Envision plate reader. The inhibition rate (%) = (positive well reading-compound well reading)/(positive well reading-negative well reading)×100. The corresponding IC50 values were calculated using GraphPad Prism 5.0.

[2] = tested on: human epithelial (A-549) cancer cell line; test: Antiproliferative assay, A-549; type: cell-based; details: A549, read-out: Antiproliferative Activity IC50 ± SEM, A-549
Description: (§1) 4.2.1.2. Assay for antiproliferative effect
(§2) To explore the antiproliferative potential of compounds propidium iodide fluorescence assay was performed using different cell lines such as Panc-1 (pancreas cancer cell line), MCF-7 (breast cancer cell line), HT-29 (colon cancer cell line) and A-549 (epithelial cancer cell line), respectively.
(§3) To calculate the total nuclear DNA, a fluorescent dye (propidium iodide, PI) is used which can attach to the DNA, thus offering a quick and precise technique. PI cannot pass through the cell membrane and its signal intensity can be considered as directly proportional to quantity of cellular
(§4) DNA. Cells whose cell membranes are damaged or have changed permeability are counted as dead ones. The assay was performed by seeding the cells of different cell lines at a density of 3000-7500 cells/well (in200μl medium) in culture plates followed by incubation for 24h at 37 °C in humidified 5%CO2/95% air atmospheric conditions. The medium was removed; the compounds were added to the plates at 10 μM concentrations (in 0.1% DMSO) in triplicates, followed by incubation for 48h. DMSO (0.1%) was used as control. After incubation, medium was removed followed by the addition of PI (25 μl, 50μg/mL in water/medium) to each well of the plates. At - 80 °C, the plates were allowed to freeze for 24 h, followed by thawing at 25 °C. A fluorometer (Polar-Star BMG Tech) was used to record the readings at excitation and emission wavelengths of 530 and 620 nm for each well. The percentage cytotoxicity of compounds was calculated using […]
(§5) Where ATC= Absorbance of treated cells and AC= Absorbance of control. Erlotinib was used as positive control in the assay.

[3] = tested on: pancreatic cancer (Panc-1) cell line; test: Antiproliferative assay, Panc-1; type: cell-based; details: Homo sapiens, read-out: Antiproliferative Activity IC50 ± SEM, Panc-1
Description: as §1, §2, §3, §4, §5

[4] = tested on: colon cancer (HT-29) cell line; test: Antiproliferative assay, HT-29; type: cell-based; details: Homo sapiens, read-out: Antiproliferative Activity IC50 ± SEM, HT-29
Description: as §1, §2, §3, §4, §5

[5] = biological target: BRAF^V600E (Mus musculus, UniProt P28028, V585E); test: BRAF^V600E inhibitory assay
Description: BRAFV600E inhibitory assay
V600E mutant BRAF kinase assay was performed to investigate the activity of tested compounds against BRAF. Mouse full-length GST-tagged BRAFV600E (7.5 ng, Invitrogen, PV3849) was pre-incubated with drug (1 µL) and assay dilution buffer (4 µL) for 60 min at 25 °C. In assay dilution buffer, a solution (5 µL) containing MgCl2 (30 mM), ATP (200 µM), recombinant human full length (200 ng) and N-terminal His-tagged MEK1 (Invitrogen) was added to start the assay, subsequent to incubation for 25 min at 25 °C. The assay was stopped using 5X protein denaturing buffer (LDS) solution (5 µL). To further denature the protein, heat (70° C) was applied for 5 min.
10 µL of each reaction was loaded into the precast plates and electrophoresis was allowed to proceed. After completion of electrophoresis, the front part of the precast gel plate (holding hot ATP) was cut and afterwards cast-off. The dried gel was developed using a phosphor screen.

[6] = Cell viability assay (MTT) on MCF-10A; type: cell-based; details: human, MCF-10A mammary gland epithelial cells, MCF-10A cells, four days
Description: To assess the viability of compounds IV and Va–i, the human mammary gland epithelial (MCF-10A) cell line was exploited. Compounds IV and Va–i were cultured for four days on MCF-10A cells before being evaluated for vitality using the MTT assay.
To test the viability of the new compounds, the human mammary gland epithelial (MCF-10A) cell line was used. Compounds IV and Va–i were incubated on MCF-10A cells for four days before being tested for viability using the MTT assay. See Supplementary Materials.
4.2. Biological evaluation
4.2.1. Cytotoxic activity using MTT Assay and evaluation of IC50
MTT assay was performed to investigate the effect of the synthesized compounds on mammary epithelial cells (MCF-10A). The cells were propagated in medium consisting of Ham's F-12 medium/ Dulbecco's modified Eagle's medium (DMEM) (1:1) supplemented with 10% foetal calf serum, 2 mM glutamine, insulin (10 μg/mL), hydrocortisone (500 ng/mL) and epidermal growth factor (20 ng/mL). Trypsin ethylenediamine tetra acetic acid (EDTA) was used to passage the cells after every 2-3 days. 96-well flat-bottomed cell culture plates were used to seed the cells at a density of 10^4 cells mL-1. The medium was aspirated from all the wells of culture plates after 24 h followed by the addition of synthesized compounds (in 200 μL medium to yield a final concentration of 0.1% (v/v) dimethyl sulfoxide) into individual wells of the plates. Four wells were designated to a single compound. The plates were allowed to incubate at 37°C for 96 h. Afterwards, the medium was aspirated and 3-[4,5-dimethylthiazol-2-yl]-2,5-diphenyltetrazolium bromide (MTT) (0.4 mg/mL) in medium was added to each well and subsequently incubated for 3 h. The medium was aspirated and 150 μL dimethyl sulfoxide (DMSO) was added to each well. The plates were vortexed followed by the measurement of absorbance at 540 nm on a microplate reader. The results were presented as inhibition (%) of proliferation in contrast to controls comprising 0.1%

[7] = tested on: four human cancer cell lines (A-549, MCF-7, Panc-1, HT-29); test: Antiproliferative assay, average over the four cancer cell lines (GI50); type: cell-based; details: average of the four cancer cell lines
Description: See Supplementary Materials.
as §1
To explore the antiproliferative potential of compounds propidium iodide fluorescence assay was performed using different cell lines such as Panc-1 (pancreas cancer cell line), MCF-7 (breast […]
as §3
DNA. Cells whose cell membranes are damaged or have changed permeability are counted as dead ones. The assay was performed by seeding the cells of different cell lines at a density of 3000- […]
The medium was removed; the compounds were added to the plates at 10 μM concentrations (in 0.1% DMSO) in triplicates, followed by incubation for 48h. DMSO (0.1%) was used as control. After incubation, medium was removed followed by the addition of PI (25 μl, 50μg/mL in water/medium) to each well of the plates. At - 80 °C, the plates were allowed to freeze for 24 h, followed by thawing at 25 °C. A fluorometer (Polar-Star BMG Tech) was used to record the readings at excitation and emission wavelengths of 530 and 620 nm for each well. The percentage cytotoxicity of compounds was calculated using […]
Where ATC= Absorbance of treated cells and AC= Absorbance of control. […]
positive control in the assay.

[8] = tested on: caspase-3; test: Caspase 3 assay in A-549 cells; type: cell-based, human; details: for Caspase-3 Conc: untreated control 66 pg/mL; for Caspase-3 Fold Change: vs untreated control
Description: Caspases play a crucial function in the induction and completion of apoptosis. Caspase-3 is an essential caspase that cleaves different proteins in cells, resulting in apoptosis. […]
4.2.5. Caspase-3 activation assay
Allow all reagents to reach room temperature before use. Gently mix all liquid reagents prior to use. Determine the number of 8-well strips needed for the assay. Insert these in the frame(s) for current use. Add 100 μl of the Standard Diluent Buffer to the zero standard wells. Well(s) reserved for chromogen blank should be left empty. Add 100 μl of standards and controls or diluted samples to the appropriate microtiter wells. The sample dilution chosen should be optimized for each experimental system. Tap gently on side of plate to mix. Cover wells with plate cover and incubate for 2 hours at room temperature. Thoroughly aspirate or decant solution from wells and discard the liquid, Wash wells 4 times. Pipette 100 μl of Caspase-3 (Active) Detection Antibody solution into each well except the chromogen blank(s). Tap gently on the side of the plate to mix. Cover plate with plate cover and incubate for 1 hour at room temperature. Thoroughly aspirate or decant solution from wells and discard the liquid, Wash wells 4 times. Add 100 μl Anti-Rabbit IgG HRP Working Solution to each well except the chromogen blank(s). Prepare the working dilution as described in Preparing IgG HRP. Cover wells with the plate cover and incubate for 30 minutes at room temperature. Thoroughly aspirate or decant solution from wells and discard the liquid. Wash wells 4 times. Add 100 μl of Stabilized Chromoge n to each well. The liquid in the wells will begin to turn blue. Incubate for 30 minutes at room temperature and in the dark. The incubation time for chromogen substrate is often determined by the microtiter plate reader used. Many plate readers have the capacity to record a maximum optical density (O.D.) of 2.0. The O.D. values should be monitored, and the substrate reaction stopped before the O.D. of the positive wells exceeds the limits of the instrument. The O.D. values at 450 nm can only be read after the Stop Solution has been added to each well. If using a reader that records only to 2.0 O.D., stopping the assay after […]
Add 100 μl of Stop Solution to each well. Tap side of plate gently to mix. The solution in the wells should change from blue to yellow. Read the absorbance of each well at 450 nm having blanked the plate reader against a chromogen blank composed of 100 μl each of Stabilized Chromogen and Stop Solution. Read the plate within 2 hours after adding the Stop Solution. Use a curve fitting software to generate the standard curve. A four-parameter algorithm provides the best standard curve fit. Read the concentrations for unknown samples and controls from the standard curve. Multiply value(s) obtained for sample(s) by the appropriate dilution factor to correct for the dilution in step 3. Samples producing signals greater than that of the highest standard should be diluted in Standard Diluent Buffer and reanalyzed.

[9] = biological target: T2, EGFR (Homo sapiens, UniProt P00533); test: EGFR inhibitory assay
[10] = tested on: breast cancer (MCF-7) cell line; test: Antiproliferative assay, MCF-7; type: cell-based; details: Homo sapiens, MCF7; read-out: Antiproliferative Activity IC50 ± SEM, MCF-7
Description: as §1, §2, §3, §4, §5

[11] = tested on: cancer cell lines; set-up: method as in PMID 32920363, PMID 29407956, PMID 36770936, PMID 36015154, PMID 35078049; details: cited from earlier work
[12] = tested on: CDK2; set-up: method as in PMID 32920363, PMID 29407956, PMID 36770936, PMID 36015154, PMID 35078049; details: cited from earlier work
[13] = biological target: T1, VEGFR-2; set-up: purchased Carna Biosciences, Inc; details: cited from earlier work
[14] = biological target: T2, EGFR; set-up: 645–1186); His6 (N); made in house; host or cells: Sf-9 insect cells (baculovirus; pBlueBacHis2B / pFASTBacHTc; details: cited from earlier work
[15] = tested on: BRAF^V600E; set-up: method as in PMID 32920363, PMID 29407956, PMID 36770936, PMID 36015154, PMID 35078049; details: cited from earlier work
[16] = tested on: mutant EGFR vs wild-type EGFR; details: cited from earlier work
[17] = tested on: EGFR^T790M; set-up: method as in PMID 32920363, PMID 29407956, PMID 36770936, PMID 36015154, PMID 35078049; details: cited from earlier work
[18] = four cancer cell lines, read-out: GI50 vs four cancer cell lines

T1 sequence (P35968 20-1356): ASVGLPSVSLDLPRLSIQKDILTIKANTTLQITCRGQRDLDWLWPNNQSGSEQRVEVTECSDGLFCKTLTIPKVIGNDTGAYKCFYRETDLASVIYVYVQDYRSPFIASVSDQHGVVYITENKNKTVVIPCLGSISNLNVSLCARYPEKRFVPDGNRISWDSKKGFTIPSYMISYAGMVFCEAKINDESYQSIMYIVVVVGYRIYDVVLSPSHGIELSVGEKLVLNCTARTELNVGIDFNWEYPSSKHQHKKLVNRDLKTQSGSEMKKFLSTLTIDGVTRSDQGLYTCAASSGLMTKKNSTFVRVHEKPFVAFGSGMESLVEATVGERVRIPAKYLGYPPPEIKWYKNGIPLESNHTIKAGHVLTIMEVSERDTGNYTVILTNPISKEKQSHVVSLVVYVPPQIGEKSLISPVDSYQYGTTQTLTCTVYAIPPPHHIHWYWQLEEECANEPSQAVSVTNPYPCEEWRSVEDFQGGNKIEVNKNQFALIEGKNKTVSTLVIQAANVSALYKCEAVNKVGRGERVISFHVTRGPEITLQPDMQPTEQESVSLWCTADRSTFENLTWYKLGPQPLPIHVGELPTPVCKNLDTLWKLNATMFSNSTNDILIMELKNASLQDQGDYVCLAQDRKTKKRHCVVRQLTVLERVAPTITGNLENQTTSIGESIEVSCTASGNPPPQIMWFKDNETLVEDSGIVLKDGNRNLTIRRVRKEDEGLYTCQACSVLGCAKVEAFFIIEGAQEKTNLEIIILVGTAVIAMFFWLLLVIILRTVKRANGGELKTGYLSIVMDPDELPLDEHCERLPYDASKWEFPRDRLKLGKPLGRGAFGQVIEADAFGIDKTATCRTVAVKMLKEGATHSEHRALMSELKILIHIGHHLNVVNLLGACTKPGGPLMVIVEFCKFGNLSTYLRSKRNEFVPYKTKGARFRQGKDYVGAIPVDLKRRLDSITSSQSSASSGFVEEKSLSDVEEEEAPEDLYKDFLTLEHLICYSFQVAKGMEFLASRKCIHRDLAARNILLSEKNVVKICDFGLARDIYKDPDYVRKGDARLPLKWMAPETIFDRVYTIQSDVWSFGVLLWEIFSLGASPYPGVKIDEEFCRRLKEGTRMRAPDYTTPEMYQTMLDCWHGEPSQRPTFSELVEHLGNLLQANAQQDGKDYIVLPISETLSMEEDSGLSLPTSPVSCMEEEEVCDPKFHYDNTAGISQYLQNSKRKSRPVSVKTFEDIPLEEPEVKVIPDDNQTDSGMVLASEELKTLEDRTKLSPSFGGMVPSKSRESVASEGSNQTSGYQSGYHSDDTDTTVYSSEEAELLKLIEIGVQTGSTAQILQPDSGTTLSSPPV
T2 sequence (P00533 669-1210): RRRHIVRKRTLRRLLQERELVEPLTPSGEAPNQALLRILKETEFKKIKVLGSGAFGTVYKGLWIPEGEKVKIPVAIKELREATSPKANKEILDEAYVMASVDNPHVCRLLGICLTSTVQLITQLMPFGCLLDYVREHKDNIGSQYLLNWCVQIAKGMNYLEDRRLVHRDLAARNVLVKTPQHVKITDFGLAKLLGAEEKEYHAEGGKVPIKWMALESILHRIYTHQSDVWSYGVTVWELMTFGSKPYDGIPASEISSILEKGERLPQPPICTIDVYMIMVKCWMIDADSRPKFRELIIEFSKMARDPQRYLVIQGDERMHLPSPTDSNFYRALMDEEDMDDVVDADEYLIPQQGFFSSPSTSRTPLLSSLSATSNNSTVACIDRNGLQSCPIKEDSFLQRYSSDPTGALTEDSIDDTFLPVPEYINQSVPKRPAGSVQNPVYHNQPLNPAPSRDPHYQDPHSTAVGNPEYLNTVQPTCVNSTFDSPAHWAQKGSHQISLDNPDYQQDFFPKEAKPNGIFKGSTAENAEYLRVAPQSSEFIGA
BRAF^V600E (Mus musculus, UniProt P28028, V585E), sequence (P28028 whole entry V585E): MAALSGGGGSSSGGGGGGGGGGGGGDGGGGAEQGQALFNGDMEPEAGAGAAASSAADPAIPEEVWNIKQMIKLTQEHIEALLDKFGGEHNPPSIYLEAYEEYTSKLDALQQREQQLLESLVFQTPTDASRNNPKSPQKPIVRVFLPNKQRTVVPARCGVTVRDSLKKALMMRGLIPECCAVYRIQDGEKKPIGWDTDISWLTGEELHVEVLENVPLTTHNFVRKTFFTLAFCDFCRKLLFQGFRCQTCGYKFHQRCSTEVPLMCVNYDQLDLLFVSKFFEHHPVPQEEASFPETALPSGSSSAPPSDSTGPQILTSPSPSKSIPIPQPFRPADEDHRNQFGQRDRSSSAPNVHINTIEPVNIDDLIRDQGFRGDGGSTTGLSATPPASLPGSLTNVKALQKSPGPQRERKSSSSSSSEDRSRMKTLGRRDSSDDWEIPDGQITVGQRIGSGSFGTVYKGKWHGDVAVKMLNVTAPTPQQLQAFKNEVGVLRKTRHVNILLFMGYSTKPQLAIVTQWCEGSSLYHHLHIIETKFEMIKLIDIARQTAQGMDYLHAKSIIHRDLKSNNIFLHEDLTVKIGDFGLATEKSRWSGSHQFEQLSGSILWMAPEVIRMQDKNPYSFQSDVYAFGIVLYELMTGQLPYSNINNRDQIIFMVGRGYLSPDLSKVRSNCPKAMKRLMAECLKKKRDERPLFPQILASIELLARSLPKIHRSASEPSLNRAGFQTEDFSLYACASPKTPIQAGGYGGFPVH

SMILES: CCOCc1c(C(=O)NCC(c2ccccc2)c2c(-c3ccccc3)[nH]c3ccccc23)[nH]c2ccc(Cl)cc12 (centres unmarked) [Compound Vh, 5-Chloro-3-(ethoxymethyl)-N-(2-phenyl-2-(2-phenyl-1H-indol-3-yl)ethyl)-1H-indole-2-carboxamide]
- IC50 [1]: 3.25 ± 0.25 nM
- IC50 [2]: 34 ± 3 nM
- IC50 [3]: 36 ± 3 nM
- IC50 [4]: 38 ± 3 nM
- melting point: 210 to 212 °C
- IC50 [5]: 89 ± 7 nM
- viability at 96 h, 50 µM [6]: 90%
- GI50 [7]: 37 nM
- Caspase-3 Conc [8]: 460 ± 4 pg/mL
- Caspase-3 Fold Change [8]: 7
- IC50 [9]: 85 ± 7 nM
- IC50 [10]: 38 ± 3 nM

SMILES: CCc1c(C(=O)NCCc2ccc(N3CCOCC3)cc2)[nH]c2ccc(C)cc12 [Compound 12]
- GI50 [11, 18]: 37 nM
- IC50 [12]: 16 nM

SMILES: c1nc(Nc2ccc(N3CCOCC3)cc2)cc(Oc2ccc3[nH]ccc3c2)n1 [Compound 4]
- IC50 [13]: 1200 nM
- IC50 [14]: 7 nM

SMILES: Cc1c2n(c3ccc(Cl)cc13)C(=O)CN(CCc1ccc(N3CCOCC3)cc1)C2=O [Compound 7]
- GI50 [11, 18]: 1100 nM
- IC50 [15]: 150 nM

SMILES: C=CC(=O)Nc1cc(Nc2nccc(-c3cn(C)c4ccccc34)n2)c(OC)cc1N(C)CCN(C)C [Osimertinib]
- selectivity for the mutant protein over wild-type EGFR [16]: approximately 200 times

SMILES: CCOC(=O)c1[nH]c2ccc(Cl)cc2c1CNCCc1cccc(N2CCCCC2)c1 [Compound 11]
- IC50 [17]: 8.6 nM
- GI50 [11, 18]: 29 nM
- IC50 [15]: 35 nM

- IC50 [1]: 2.5 ± 0.2 nM
- IC50 [2]: 46 ± 4 nM
- IC50 [3]: 48 ± 4 nM
- IC50 [4]: 48 ± 4 nM
- melting point: 131 to 133 °C
- IC50 [5]: 107 ± 9 nM
- GI50 [7]: 48 nM
- IC50 [9]: 103 ± 8 nM
- IC50 [10]: 49 ± 4 nM
SMILES: O=C(NCC(c1ccccc1)c1c(-c2ccccc2)[nH]c2ccccc12)c1[nH]c2ccc(Cl)cc2c1-c1ccccc1 (centres unmarked) [Vf, 5-Chloro-3-phenyl-N-(2-phenyl-2-(2-phenyl-1H-indol-3-yl)ethyl)-1H-indole-2-carboxamide]
- viability at 96 h, 50 µM [6]: 91%

SMILES: CCOCc1c2n(c3ccc(Cl)cc13)C(=O)CN(CCc1ccc(N3CCOCC3)cc1)C2=O [Compound 9]
- GI50 [11, 18]: 35 nM
- IC50 [15]: 45 nM

- IC50 [1]: 1.1 ± 0.08 nM
- IC50 [2]: 42 ± 4 nM
- IC50 [3]: 44 ± 4 nM
- IC50 [4]: 45 ± 4 nM
- melting point: 132 to 134 °C
- IC50 [5]: 97 ± 8 nM
- GI50 [7]: 44 nM
- IC50 [9]: 94 ± 7 nM
- IC50 [10]: 46 ± 4 nM
SMILES: O=C(NCC(c1ccccc1)c1c(-c2ccccc2)[nH]c2ccccc12)c1[nH]c2ccc(Cl)cc2c1CO (centres unmarked) [Ve, 5-Chloro-3-(hydroxymethyl)-N-(2-phenyl-2-(2-phenyl-1H-indol-3-yl)ethyl)-1H-indole-2-carboxamide]
- viability at 96 h, 50 µM [6]: 90%
- Caspase-3 Conc [8]: 462 ± 4 pg/mL
- Caspase-3 Fold Change [8]: 7

SMILES: Cc1c2cc(Cl)ccc2n2cc(Cc3ccccc3)[nH]c(=O)c12 [Compound 6]
- GI50 ([11]; three cancer cell lines, read-out: GI50 vs three cancer cell lines): 500 nM
- IC50 [15]: 100 nM

SMILES: Cc1c(C(=O)NCCc2ccc(N3CCCC3C)cc2)[nH]c2ccc(Cl)cc12 (centres unmarked) [Compound 10]
- GI50 [11, 18]: 950 nM
- IC50 [12]: 13 nM
